Assay results as given in patent publication US9580432B2, “Fused pyrimidine compound or salt thereof” (TAIHO PHARMACEUTICAL CO., LTD., priority 2013, dated 2017).

Assays:
[1] = molecular target: purified recombinant human BTK protein (Homo sapiens (Human), UniProt Q06187); experiment: Measurement of BTK inhibitory activity (in vitro); assay type: biochemical; conditions: FL-PEPTIDE 2 substrate 1 μM, ATP 45 μM, 40 minutes at 25° C.
Description: With regard to the setting of the conditions for a method for measuring the inhibitory activity of a compound against BTK kinase activity in vitro, it is described in the consumable reagent supplies price list for LabChip (registered trademark) series of PerkinElmer, Inc. that FL-PEPTIDE 2 corresponds to a substrate peptide for the measurement of BTK kinase activity. Therefore, FL-PEPTIDE 2 was used as a substrate. The purified recombinant human BTK protein used in the test was purchased from Carna Biosciences, Inc.
With regard to the measurement of the inhibitory activity of the compounds, firstly, the compounds of the present invention were diluted stepwise with dimethyl sulfoxide (DMSO). Subsequently, BTK protein, a substrate peptide (final concentration was 1 μM), magnesium chloride (final concentration was 10 mM), ATP (final concentration was 45 μM), and a DMSO solution of the compounds of the present invention (final concentration of DMSO was 5%) were added to a buffer solution for kinase reaction (20 mM HEPES (pH 7.5), 2 mM dithiotheitol, 0.01% Triton X-100), and after the solution was incubated for 40 minutes at 25° C., a kinase reaction was carried out. The reaction was terminated by adding EDTA thereto in order to obtain a final concentration of 30 mM. Finally, a substrate peptide that was not phosphorylated (S) and a phosphorylated peptide (P) were separated and detected by microchannel capillary electrophoresis using a LabChip EZ Reader II (PerkinElmer, Inc.).

[2] = system: purified recombinant human EGFR protein / BTK; experiment: BTK inhibition selectivity compared with EGFR kinase inhibitory activity (in vitro); assay type: biochemical; conditions: EGFR assay ATP 1.5 μM
Description: 1) Measurement of BTK Inhibitory Activity
2) Measurement of EGFR Inhibitory Activity
Therefore, a biotinated peptide (biotin-[…]) was produced by referring to the amino acid sequence of the peptide. The purified recombinant human EGFR protein used in the test was purchased from Carna Biosciences, Inc.
With regard to the measurement of the inhibitory activity of the compounds, firstly, the compounds of the present invention were diluted stepwise with dimethyl sulfoxide (DMSO). […] The reaction was terminated by adding EDTA thereto in order to obtain a final concentration of 24 mM. Subsequently, a detection liquid containing Eu-labeled anti-phosphorylated tyrosine antibody PT66 (PerkinElmer, Inc.) and […] APC-SA (PerkinElmer, Inc.) was added thereto, and the system was left to stand for 2 hours or longer at room temperature.
3) BTK Inhibition Selectivity

[3] = system: A431 cells / TMD8 cells; experiment: Proliferation inhibitory activity against cell lines expressing BTK and EGFR (in vitro), comparison of selectivity; assay type: cell-based, human; conditions: ratio from GI50 (nM), 3 days culture, CELLTITER GLO
Description: TMD8 cells, which are of a diffuse large B-cell lymphoma cell line expressing BTK, were suspended in RPMI1640 medium (manufactured by Life Technologies Corp.) containing 10% fetal bovine serum. A431 cells, which are of an EGFR-overexpressing, highly activated human epidermoid carcinoma cell line, were suspended in DMEM, high glucose medium (manufactured by Life Technologies Corp.) containing 10% fetal bovine serum. The cell suspensions were inoculated into each well of 384-well flat-bottomed microplates, and the cells were cultured for 1 day at 37° C. in an incubator containing 5% carbon dioxide gas. […] A DMSO solution of the test compounds was diluted with the medium used in the suspension of the each cells, and this was added to each of the wells of the cell culture plates such that the final concentration of DMSO would be 0.2%. The cells were further cultured for 3 days at 37° C. in an incubator containing 5% carbon dioxide gas. […] Proliferation inhibition ratio (%)=(C−T)/(C−C0)×100
T: Luminescence intensity of a well in which the test compound was added
C: Luminescence intensity of a well in which the test compound was not added
C0: Luminescence intensity of a well measured before the addition of the test compound
When a comparison is made between the cell proliferation inhibitory activity against A431 cells that depends on the EGFR proliferation signaling and the cell proliferation inhibitory activity against TMD8 cells that depends on the BTK proliferation signaling, the influence of the respective kinases at a cellular level is able to be evaluated. That is, when the “A431 cell proliferation inhibition ratio/TMD8 cell proliferation inhibition ratio” is calculated, it is contemplated that as the value of the ratio is larger, the selectivity to BTK over EGFR in the cells is higher.

Chain of purified recombinant human BTK protein (Q06187 whole entry): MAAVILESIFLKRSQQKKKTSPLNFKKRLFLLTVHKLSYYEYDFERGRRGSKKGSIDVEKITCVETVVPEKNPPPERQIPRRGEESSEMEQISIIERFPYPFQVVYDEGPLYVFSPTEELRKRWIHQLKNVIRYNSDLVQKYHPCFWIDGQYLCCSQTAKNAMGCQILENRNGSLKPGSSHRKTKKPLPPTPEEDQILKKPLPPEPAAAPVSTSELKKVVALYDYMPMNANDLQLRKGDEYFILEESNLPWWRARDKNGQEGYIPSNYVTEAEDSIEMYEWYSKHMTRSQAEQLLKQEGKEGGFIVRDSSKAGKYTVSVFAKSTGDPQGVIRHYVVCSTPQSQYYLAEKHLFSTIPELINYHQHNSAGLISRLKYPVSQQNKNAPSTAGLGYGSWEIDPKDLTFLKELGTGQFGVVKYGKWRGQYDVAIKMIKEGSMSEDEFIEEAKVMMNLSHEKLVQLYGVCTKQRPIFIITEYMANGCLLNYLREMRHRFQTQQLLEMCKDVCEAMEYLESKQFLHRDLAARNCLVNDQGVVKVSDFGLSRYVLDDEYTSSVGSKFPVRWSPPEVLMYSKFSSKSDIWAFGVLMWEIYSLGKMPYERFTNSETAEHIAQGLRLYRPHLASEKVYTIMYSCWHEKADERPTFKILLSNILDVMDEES

IC50 [1]	EGFR inhibitory activity IC50 value (nM)/BTK inhibitory activity IC50 value (nM) [2]	Compound	A431 cell proliferation inhibition ratio/TMD8 cell proliferation inhibitio ratio [3]
1.51 nM	16.3	CC(C)N(C)C/C=C/C(=O)N1CC[C@@H](n2cc(C(=O)Nc3nc4cc(-c5ccccc5)ccc4o3)c3c(N)ncnc32)C1 [Example 59, (R,E)-4-amino-N-(5-phenylbenzo[d]oxazol-2-yl)-7-(1-(4-(isopropyl(methyl)amino)but-2-enoyl)pyrrolidin-3-yl) 7H-pyrrolo[2,3-d]pyrimidine-5-carboxamide]	–
0.888 nM	929.2	C=C(C)C(=O)N1CCC[C@@H](n2nc(C(=O)Nc3nc4cc(Cl)ccc4o3)c3c(N)ncnc32)C1 [Example 4, (R)-4-amino-N-(5-chlorobenzo[d]oxazol-2-yl)-1-(1-methacryloylpiperidin-3-yl)-1H-pyrazolo[3,4-d]pyrimidine-3-carboxamide]	–
1.88 nM	32.4	Nc1ncnc2c1c(C(=O)Nc1nc3cc(-c4ccccc4)ccc3o1)cn2[C@@H]1CCN(C(=O)/C=C/CN2CCCC2)C1 [Example 60, (R,E)-4-amino-N-(5-phenylbenzo[d]oxazol-2-yl)-7-(1-(4-(pyrrolidin-1-yl)but-2-enoyl)pyrrolidin-3-yl) 7H-pyrrolo[2,3-d]pyrimidine-5-carboxamide]	–
–	20.6	C=CC(=O)N1CC(n2nc(C(=O)Nc3nc4cc(F)ccc4o3)c3c(N)ncnc32)C1 [Example 79, 1-(1-acryloylazetidin-3-yl)-4-amino-N-(5-fluorobenzo[d]oxazol-2-yl)-1H-pyrazolo[3,4-d]pyrimidine-3-carboxamide]	–
–	11.0	C=CC(=O)NCCCn1nc(C(=O)Nc2nc3ccccc3o2)c2c(N)ncnc21 [Example 85, 1-(3-acrylamidopropyl)-4-amino-N-(benzo[d]oxazol-2-yl)-1H-pyrazolo[3,4-d]pyrimidine-3-carboxamide]	–
0.867 nM	59.8	Nc1ncnc2c1c(C(=O)Nc1nc3cc(Cl)ccc3o1)nn2[C@@H]1CCN(C(=O)/C=C/CN2CCCC2)C1 [Example 36, (R,E)-4-amino-N-(5-chlorobenzo[d]oxazol-2-yl)-1-(1-(4-(pyrrolidin-1-yl)but-2-enoyl)pyrrolidin-3-yl)-1H-pyrazolo[3,4-d]pyrimidine-3-carboxamide]	–
2.79 nM	642.8	CC(C)=CC(=O)N1CC[C@@H](n2nc(C(=O)Nc3nc4cc(Cl)ccc4o3)c3c(N)ncnc32)C1 [Example 26, (R,E)-4-amino-N-(5-chlorobenzo[d]oxazol-2-yl)-1-(1-(3-methylbut-2-enoyl)pyrrolidin-3-yl)-1H-pyrazolo[3,4-d]pyrimidine-3-carboxamide]	–
259 nM	11.2	CN(C)C/C=C/C(=O)N1CC[C@H](n2nc(C(=O)Nc3nc4ccccc4o3)c3c(N)ncnc32)C1 [Example 73, (S,E)-4-amino-N-(benzo[d]oxazol-2-yl)-1-(1-(4-(dimethylamino)but-2-enoyl)pyrrolidin-3-yl)-1H-pyrazolo[3,4-d]pyrimidine-3-carboxamide]	–
1.34 nM	17.6	CN(C)C/C=C/C(=O)N1CC[C@@H](n2cc(C(=O)Nc3nc4cc(-c5ccccc5)ccc4o3)c3c(N)ncnc32)C1 [Example 56, (R,E)-4-amino-N-(5-phenylbenzo[d]oxazol-2-yl)-7-(1-(4-(dimethylamino)but-2-enoyl)pyrrolidin-3-yl) 7H-pyrrolo[2,3-d]pyrimidine-5-carboxamide]	–
7.34 nM	20.4	(E)-4-amino-N-(5-chlorobenzo[d]oxazol-2-yl)-7-(1-(4-(dimethylamino)but-2-enoyl)azetidin-3-yl) 7H-pyrrolo[2,3-d]pyrimidine-5-carboxamide [Example 47]	–
1.51 nM	19.3	CCN(C)C/C=C/C(=O)N1CC[C@@H](n2cc(C(=O)Nc3nc4cc(-c5ccccc5)ccc4o3)c3c(N)ncnc32)C1 [Example 57, (R,E)-4-amino-N-(5-phenylbenzo[d]oxazol-2-yl)-7-(1-(4-(ethyl(methyl)amino)but-2-enoyl)pyrrolidin-3-yl) 7H-pyrrolo[2,3-d]pyrimidine-5-carboxamide]	–
0.591 nM	–	C=CC(=O)N1CC[C@@H](n2nc(C(=O)Nc3nc4cc(Cl)ccc4o3)c3c(N)ncnc32)C1 [Example 24, (R)-1-(1-acryloylpyrrolidin-3-yl)-4-amino-N-(5-chlorobenzo[d]oxazol-2-yl)-1H-pyrazolo[3,4-d]pyrimidine-3-carboxamide]	3266.5
0.464 nM	–	C=CC(=O)N1CCC[C@@H](n2nc(C(=O)Nc3nc4cc(Br)ccc4o3)c3c(N)ncnc32)C1 [Example 2, (R)-1-(1-acryloylpiperidin-3-yl)-4-amino-N-(5-bromobenzo[d]oxazol-2-yl)-1H-pyrazolo[3,4-d]pyrimidine-3-carboxamide]	>1033.6
1.58 nM	–	C=CC(=O)N1CCC[C@@H](n2nc(C(=O)Nc3nc4cc(C)c(C)cc4o3)c3c(N)ncnc32)C1 [Example 23, (R)-1-(1-acryloylpiperidin-3-yl)-4-amino-N-(5,6-dimethylbenzo[d]oxazol-2-yl)-1H-pyrazolo[3,4-d]pyrimidine-3-carboxamide]	>10680

Compound	IC50 [1]	EGFR inhibitory activity IC50 value (nM)/BTK inhibitory activity IC50 value (nM) [2]	A431 cell proliferation inhibition ratio/TMD8 cell proliferation inhibitio ratio [3]
C=CC(=O)N1CC[C@@H](n2nc(C(=O)Nc3nc4cc(-c5cccs5)ccc4o3)c3c(N)ncnc32)C1 [Example 28, (R)-1-(1-acryloylpyrrolidin-3-yl)-4-amino-N-(5-(thiophen-2-yl)benzo[d]oxazol-2-yl)-1H-pyrazolo[3,4-d]pyrimidine-3-carboxamide]	0.559 nM	–	2040.3
C=CC(=O)N1CC(n2cc(C(=O)Nc3nc4cc(Cl)ccc4o3)c3c(N)ncnc32)C1 [Example 46, 7-(1-acryloylazetidin-3-yl)-4-amino-N-(5-chlorobenzo[d]oxazol-2-yl)-7H-pyrrolo[2,3-d]pyrimidine-5-carboxamide]	3.27 nM	–	7662.2
C=CC(=O)N1CCC[C@@H](n2nc(C(=O)Nc3nc4cc(Cl)ccc4o3)c3c(N)ncnc32)C1 [Example 1, (R)-1-(1-acryloylpiperidin-3-yl)-4-amino-N-(5-chlorobenzo[d]oxazol-2-yl)-1H-pyrazolo[3,4-d]pyrimidine-3-carboxamide]	0.415 nM	–	1062.9
C=CC(=O)N1CC[C@@H](n2cc(C(=O)Nc3nc4cc(Cl)ccc4o3)c3c(N)ncnc32)C1 [Example 48, (R)-7-(1-acryloylpyrrolidin-3-yl)-4-amino-N-(5-chlorobenzo[d]oxazol-2-yl)-7H-pyrrolo[2,3-d]pyrimidine-5-carboxamide]	0.836 nM	–	2496.4
C=CC(=O)N1CC[C@@H](n2nc(C(=O)Nc3nc4cc(C)ccc4o3)c3c(N)ncnc32)C1 [Example 29, (R)-1-(1-acryloylpyrrolidin-3-yl)-4-amino-N-(5-methylbenzo[d]oxazol-2-yl)-1H-pyrazolo[3,4-d]pyrimidine-3-carboxamide]	0.485 nM	–	1243.4
